Assay results reported in US20150072967A1, “TAUROURSODEOXYCHOLIC ACID ATTENTUATES OR ABOLISHES FORMATION AND DEPOSITION OF AMYLOID-B PEPTIDE” (Metselex, Inc., priority 2012, published 2015).

Key:
[1] = cited from earlier work
γ-secretase = γ-secretase activity / APP processing by immunoblot of APP-CTFs and total Aβ; format: in vivo, mouse; conditions: brain tissue
Method: (§1) Transgenic mice and TUDCA treatment. APP/PS1 double-transgenic mice express human APP containing the KM670/671NL Swedish double mutation and human PS 1 carrying the L166P mutation under the control of a neuron-specific murine Thy-1 minigene promoter. The two transgenes cosegregate in these mice. APP/PS1 mice were maintained on a C57BL/6J genetic background and genotyped by PCR analysis of genomic DNA from tail biopsies. All animals were kept in standard animal cages under conventional laboratory conditions (12 h light/dark cycle, 22° C.), with ad libitum access to food and water. The animals were randomized for therapy trials and coded, and the operators remained double blinded to which treatment they received, until the completion of data collection. Male APP/PS1 transgenic mice and wild-type littermates were randomly assigned into four groups: TUDCA-treated and untreated (control) APP/PS1 mice and TUDCA-treated and untreated (control) wild-type mice. Animals were fed a diet of standard laboratory chow supplemented with either 0.4% (wt/wt) TUDCA (sodium salt; Prodotti Chimici e Alimentari S.p.A., Basaluzzo, Italy), or no bile acid, custom made by Harlan (Harlan Laboratories Models, S.L., Barcelona, Spain). Treatment was started when the mice were 2 months old and continued for 6 months. The dose and duration of TUDCA, whose pharmacokinetics has been extensively studied in rodents, were chosen based on pilot studies using APP/PS1 mice and other animal studies.
γ-secretase activity. Assessment of γ-secretase activity was performed by detection of the ˜7 KDa carboxyl terminal fragment (CTF)-γ cleavage product of APP. Briefly, 60 μg of total protein extracts were resolved electrophoretically in 10-20% Tris-Tricine gels (BioRad), and CTF-γ (and CTF-β) identified using an anti-APP, C-terminal rabbit polyclonal antibody (Sigma-Aldrich; 1:2000). After stripping, membranes were incubated with the primary mouse monoclonal antibody reactive to Aβ (6E10; Signet; 1:1000) to detect total Aβ peptide. Immunoreactivities were visualized as described above.

APP/PS1 mice [2] = assay: Thioflavin T staining of amyloid plaque burden in brain sections; format: in vivo, mouse
Method: (§2) Transgenic mice and TUDCA treatment. APP/PS1 double-transgenic mice express human APP containing the KM670/671NL Swedish double mutation and human PS 1 carrying the L166P mutation under the control of a neuron-specific murine Thy-1 minigene promoter. The two transgenes cosegregate in these mice. APP/PS1 mice were maintained on a C57BL/6J genetic background and genotyped by PCR analysis of genomic DNA from tail biopsies. All animals were kept in standard animal cages under conventional laboratory conditions (12 h light/dark cycle, 22° C.), with ad libitum access to food and water. […]
Image analysis and semiquantification of immunofluorescence. Images were acquired with an Axioskop fluorescence microscope (Carl Zeiss GmbH, Hamburg, Germany). Semiquantitative analysis of mean fluorescence intensities (MFIs) of GFAP, Iba-I, and MAP2 were performed using NIH Image J software. […] An intensity threshold was set and kept constant for all images analyzed. MFI per square millimeter area was calculated by dividing the MFI units by the area of outlined regions and is presented as a bar graph. The total number of thioflavin- and Aβ-positive plaques in the hippocampus and frontal cortex was counted and presented as plaque number per square millimeter.

APP/PS1 mice [3] = assay: Sandwich ELISA of Aβ1-40 and Aβ1-42 in brain extracts; format: in vivo, mouse; conditions: hippocampus and frontal cortex of APP/PS1 mice; p<0.01
Method: as §2, with “water. The animals were randomized for therapy trials and coded, and the operators remained double blinded to which treatment they received, until the completion of data collection. Male APP/PS1 transgenic mice and wild-type littermates were randomly assigned into four groups: TUDCA-treated and untreated (control) APP/PS1 mice and TUDCA-treated and untreated (control) wild-type mice.” for “water.”
Sandwich ELISA. […] Total Aβ1-40 or Aβ1-42 content was measured by sandwich ELISA (Millipore) according to the manufacturer's instructions. Values were normalized to the respective total protein concentration and expressed as % of wild-type control.

APP/PS1 mice [4] = assay: GFAP immunofluorescence (activated astrocytes); format: in vivo, mouse; conditions: hippocampus and frontal cortex; TUDCA-treated APP/PS1 mice; p<0.05
Method: as §2, with “water. The animals were randomized for therapy trials and coded, and the operators remained double blinded to which treatment they received, until the completion of data collection. Male APP/PS1 transgenic mice and wild-type littermates were randomly assigned into four groups: TUDCA-treated and untreated (control) APP/PS1 mice and TUDCA-treated and untreated (control) wild-type mice.” for “water.”
(§3) Image analysis and semiquantification of immunofluorescence. Images were acquired with an Axioskop fluorescence microscope (Carl Zeiss GmbH, Hamburg, Germany). Semiquantitative analysis of mean fluorescence intensities (MFIs) of GFAP, Iba-I, and MAP2 were performed using NIH Image J software. […] An intensity threshold was set and kept constant for all images analyzed. […]

APP/PS1 mice [5] = assay: MAP2 immunoreactivity (neuronal integrity); format: in vivo, mouse
Method: as §2, with “water. The animals were randomized for therapy trials and coded, and the operators remained double blinded to which treatment they received, until the completion of data collection. Male APP/PS1 transgenic mice and wild-type littermates were randomly assigned into four groups: TUDCA-treated and untreated (control) APP/PS1 mice and TUDCA-treated and untreated (control) wild-type mice.” for “water.”
(§4) Image analysis and semiquantification of immunofluorescence. Images were acquired with an Axioskop fluorescence microscope (Carl Zeiss GmbH, Hamburg, Germany). Semiquantitative analysis of mean fluorescence intensities (MFIs) of GFAP, Iba-I, and MAP2 were performed using NIH Image J software. […]

hepatocytes = conditions: DNA microarray; cited from earlier work
APP/PS1 mice [6] = assay: Iba-I immunostaining (activated microglia); format: in vivo, mouse
Method: as §2, with “water. The animals were randomized for therapy trials and coded, and the operators remained double blinded to which treatment they received, until the completion of data collection. Male APP/PS1 transgenic mice and wild-type littermates were randomly assigned into four groups: TUDCA-treated and untreated (control) APP/PS1 mice and TUDCA-treated and untreated (control) wild-type mice.” for “water.”
as §4

APP/PS1 mice [7] = assay: Aβ immunohistochemistry (6E10), Aβ plaque number in brain; format: in vivo, mouse; conditions: TUDCA-treated APP/PS1 mice vs untreated transgenic mice
Method: as §2, with “water. The animals were randomized for therapy trials and coded, and the operators remained double blinded to which treatment they received, until the completion of data collection. Male APP/PS1 transgenic mice and wild-type littermates were randomly assigned into four groups: TUDCA-treated and untreated (control) APP/PS1 mice and TUDCA-treated and untreated (control) wild-type mice.” for “water.”
as §3

APP/PS1 mice [8] = assay: Recognition, spatial and contextual fear memory; format: in vivo, mouse; conditions: transgenic mice vs control transgenic mice
Method: as §1, with “The dose and duration of TUDCA, whose pharmacokinetics has been extensively studied in rodents, were chosen based on pilot studies using APP/PS1 mice and other animal studies.” left out

[9] = tested on: CTGF, A2M, APOE, SORLA expression; assay: Real-time PCR of lipid-metabolism mediators in brain; format: in vivo, mouse
Method: as §1
Real-time PCR. Total RNA from dissected hippocampus and frontal cortex was isolated with TRIzol (Invitrogen), according to the manufacturer's instructions. Samples were homogenized in TRIzol using a motor-driven Bio-vortexer (No 1083; Biospec Products, Bartlesfield, Okla.) and disposable RNAse/DNAse free sterile pestles (Thermo Scientific). […] Real-time quantitative PCR analysis was performed in the 7300 Real-Time PCR System (Applied Biosystems, Foster City, Calif., USA), using SYBR Green PCR master mix (Fermentas International Inc., Glen Burnie, Md., USA). Triplicate reactions were run per sample. The expression levels relative to GAPDH were calculated using the ΔΔCt method. TUDCA-untreated wild-type mice were used as the calibrator. The n-fold change in expression was obtained using the formula: 2^−ΔΔCt.

[10] = TUDCA-treated APP/PS1 mice vs control transgenic mice
[11] = APP/PS1 mice hippocampus, p<0.05

C[C@H](CCC(=O)NCCS(=O)(=O)O)[C@H]1CC[C@H]2[C@@H]3[C@@H](O)C[C@@H]4C[C@H](O)CC[C@]4(C)[C@H]3CC[C@]12C [TUDCA, tauroursodeoxycholic acid]
oral bioavailability [1]: orally bioavailable
CTF-β levels (γ-secretase; TUDCA-fed transgenic mice vs control transgenic mice): decreased
total Aβ levels (γ-secretase; TUDCA-treated APP/PS1 mice vs control APP/PS1 mice): decreased
full-length APP levels (γ-secretase; [10]): remained unchanged
production of CTF-γ (γ-secretase; [10]): decrease
amyloid deposits (thioflavin staining) (APP/PS1 mice [2]; TUDCA-treated wild-type mice): absent
thioflavin plaque number (APP/PS1 mice [2]; hippocampus and frontal cortex, APP/PS1 mice fed 0.4% (wt/wt) TUDCA for 6 months vs control transgenic mice, p<0.01): marked reduction
Aβ1-40 levels (APP/PS1 mice [3]): significantly decreased
Aβ1-42 levels (APP/PS1 mice [3]): significantly decreased
GFAP immunoreactivity (APP/PS1 mice [4]): decreased
integrity of the neuronal fibers around amyloid plaques (MAP2/amyloid double staining) (APP/PS1 mice [5]; brains of TUDCA-treated APP/PS1 mice): significant improvement
MAP2 immunoreactivity (APP/PS1 mice [5]; hippocampus and frontal cortex of APP/PS1 mice, p<0.05): prevented the loss
downregulation of A2M expression (hepatocytes): greater than 10 fold
downregulation of CTGF expression (hepatocytes): greater than 10 fold
Iba-I immunoreactivity (APP/PS1 mice [6]; TUDCA-treated APP/PS1 mice relative to control APP/PS1 mice, p<0.05): significantly less
reactive microglia around amyloid plaques (Iba-I/thioflavin double-staining) (APP/PS1 mice [6]; brains of TUDCA-treated APP/PS1 mice vs control APP/PS1 mice): fewer reactive microglia
decrease of Aβ plaque number (APP/PS1 mice [7]; frontal cortex, p<0.05): 40%
decrease of Aβ plaque number (APP/PS1 mice [7]; hippocampus, p<0.01): ~65%
recognition, and spatial and contextual fear memory (APP/PS1 mice [8]): improved
A2M expression (mRNA) ([9]; APP/PS1 mice frontal cortex): trend for decreased
APOE expression (mRNA) ([9]; APP/PS1 mice frontal cortex): trend for decreased
CTGF expression (mRNA) ([9]; APP/PS1 mice frontal cortex, p<0.05): significantly decreased
SORLA expression (mRNA) ([9]; APP/PS1 mice hippocampus): slightly increasing
A2M expression (mRNA) [9, 11]: significantly decreased
APOE expression (mRNA) [9, 11]: significantly decreased
CTGF expression (mRNA) [9, 11]: significantly decreased
